Source: patent US20190282600A1, “COMBINATION THERAPIES TARGETING TERT DEPENDENCY FOR CANCER THERAPY” (The Wistar Institute of Anatomy and Biology, priority 2018, published 2019)

Experiments:
Format in all cases: cell-based, Human
[1] = tested on: NRAS mutant melanoma cells; experiment: Telomere dysfunction-induced foci (TIF) assay, IF-FISH; settings: 6-thio-dG for 7 days
Experimental: NRAS mutant melanoma cells WM3000 were transduced with TERT shRNA and treated with NAC (mM) for 7 days. […] Representative images are shown. (scale bar=10 μm). Quantification of TIF positive cells is plotted in FIG. 13b. Cells were scored as TIF positive when three or more g-H2AX foci (green) were co-localizing with telomere foci (red). Data represent average of thirteen fields imaged +/−SD.
NRAS^mut melanoma cells were treated with 6-thio-dG for 6, 12 or 18 days. As presented in FIG. 15a, relative cell number was assessed by Crystal Violet assay and calculated relative to DMSO-treated cells. Data represent average of three independent experiments +/−SD. […] NRAS^mut cells were treated with 6-thio-dG for 7 days and telomere induced foci (TIF) was determined by indirect immunofluorescence combined with fluorescence in situ hybridization (FISH) (FIG. 15c). […] Quantification of TIF assay is plotted in FIG. 15d. Cells were scored as TIF positive when four or more γ-H2AX foci (green, center row of FIG. 15c labelled as γH2AX) were co-localizing with telomere foci (red, top row of FIG. 15c labelled as Telomeres). […] P values were calculated by unpaired Student's t-test.
For TIF analysis, indirect immunofluorescence (IF) combined with fluorescence in situ hybridization (FISH) was performed as previously described with some modifications. […] TIF were quantified from at least three independent experiments.

[2] = tested on: NRAS mutant melanoma cells; experiment: Telomere length assay (TRF Southern blotting); settings: 1 μM 6-thio-dG for 14 days
Experimental: (§1) FIGS. 2a to 2c show NRAS^mut melanoma cells (FIG. 2a), BRAF-V600E/NRAS mutant cells derived from melanoma patients resistant to BRAF/MEK inhibitors (FIG. 2b), or non-transformed melanocytes and fibroblasts (FIG. 2c) were treated with 6-thio-dG for 7 days. Cell viability was measured by Alamar Blue assay and calculated relative to DMSO-treated cells. […] Cell death was assessed by PSVUe staining. Percent of apoptotic cells is shown. […] Mean TRF length expressed as kilobase pairs is indicated at the bottom. […] FIG. 2g provides a bar graph showing that DNA damage was assessed by γH2AX staining. Data represent average from three independent experiments ±SEM. *p<0.05; **p<0.01; ***p<0.005 in unpaired Student's t-test. As presented in FIG. 2h, mice bearing established WM3000 or M93-047 NRAS^mut tumors were treated with vehicle control or 6-thio-dG (2.5 mg/kg i.p; q.d). Tumor volume was measured and average tumor volume (n=4) ±SEM was plotted vs. time.
Genomic DNA was prepared using Wizard genomic DNA purification kit (Promega) following manufacturer's instruction. […] The images were analyzed with Phosphorimager, visualized by Typhoon 9410 Imager (GE Healthcare), and processed with ImageQuant 5.2 software (Molecular Dynamics).

[3] = tested on: NRAS mutant melanoma cells; experiment: Global DNA damage, γH2AX staining by flow cytometry; settings: 1 μM 6-thio-dG for 7 days
Experimental: as §1
For assessment of global DNA damage cells were fixed and permeabilized with BD CytoFix/Perm reagent following the manufacturer's instructions and incubated with γH2AX antibody (Cell Signaling Technology, Danvers, Mass.) for 1 h at room temperature followed by 1 h incubation with Alexa-647 anti-Rabbit secondary antibody. Mean fluorescence staining was quantified by flow cytometry. […]

## Nc1nc2c(ncn2[C@H]2C[C@H](O)[C@@H](CO)O2)c(=S)[nH]1 [6-thio-dG, 6-thio-2′-deoxyguanosine]
[1]
  TIFs: increased levels
[2]
  telomere length (mean TRF): without evidence for significant telomere shortening
[3]
  γH2AX: increased levels
